The values that follow come from patent US20220306695A1, “COMPSTATIN ANALOGUES AND THEIR MEDICAL USES” (priority 2019, published 2022).

Series [1] in a line: Solubility test at 10 mg/mL (visual inspection and light scattering). The class given is physicochemical. The note with it: for Solubility, Condition 1 Acetate pH 4: 10 mg/mL compound in 100 mM acetate pH 4; for Solubility, Condition 2 Acetate pH 5: 10 mg/mL compound in 100 mM acetate pH 5; for Solubility, Condition 3 Phosphate pH 6: 10 mg/mL compound in 100 mM phosphate pH 6; for Solubility, Condition 4 Phosphate pH 7: 10 mg/mL compound in 100 mM phosphate pH 7; for Solubility, Condition 5 Phosphate pH 7.5: 10 mg/mL compound in 100 mM phosphate pH 7.5.

The test system of series [2] is classical complement pathway. Kind of series: In vitro haemolysis assay (inhibition of classical complement pathway). In kind it is cell-based, human. The note with it: Table 3; human serum, sensitized sheep red blood cells; read-out: IC50[nM], in vitro analysis of inhibition of hemolysis. An outline of the steps:
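Serially diluted compound (9 points) was preincubated 15 min at room temperature with diluted human serum, titrated per batch to give 70-90% maximal haemolysis, in Tris/casein buffer pH 7.4 with Mg2+/Ca2+. Antibody-sensitized sheep erythrocytes were then added for 30 min at 37° C, and the reaction was stopped with EDTA. Haemolysis was read at A405, with IC50 from 4PL fit.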

The structures appear in SMILES notation. Positions of bridges follow the written chain, without caps; N, C: chain ends. Non-standard residues stand in square brackets, D forms with d. Residues, ends and D or L forms follow the SMILES beside them. Trp(1-Me) = Cn1cc(C[C@H](N)C(=O)O)c2ccccc21; Sar = CNCC(=O)O

Usually IC50 stands for the concentration at which inhibition is half-maximal. As for `CC[C@H](C)[C@H](NC(C)=O)C(=O)N[C@H]1CSSC[C@@H](C(=O)N[C@@H](CCC(=O)O)C(N)=O)NC(=O)[C@H](CCCNC(=N)N)NC(=O)[C@H](Cc2c[nH]cn2)NC(=O)[C@H](CCC(=O)O)NC(=O)CNC(=O)[C@H](Cc2c[nH]c3ccccc23)NC(=O)[C@H](CC(=O)O)NC(=O)[C@H](CCC(N)=O)NC(=O)[C@H](Cc2c[nH]c3ccccc23)NC(=O)[C@H]([C@@H](C)CC)NC1=O` [Compound 22] (Ac-ICIWQDWGEHRCE-NH2; disulfide 2-12), in series [1], the “Solubility, Condition 1 Acetate pH 4” value was “+ (denotes solubility at the given condition, as determined by UV absorbance being less than 0.1 AU at 340 nm and the sample being clear when manually inspected.)”; the “Solubility, Condition 2 Acetate pH 5” value is on record as “− (denotes lack of solubility at the given condition, as UV absorbance at 340 nm exceeds 0.1 AU and/or it is visibly turbid or contains particles.)”; the “Solubility, Condition 3 Phosphate pH 6” value is reported as “− (denotes lack of solubility at the given condition, as UV absorbance at 340 nm exceeds 0.1 AU and/or it is visibly turbid or contains particles.)”; the “Solubility, Condition 4 Phosphate pH 7” value is “+ (denotes solubility at the given condition, as determined by UV absorbance being less than 0.1 AU at 340 nm and the sample being clear when manually inspected.)”. Moreover, the “Solubility, Condition 5 Phosphate pH 7.5” value in series [1] was “+ (denotes solubility at the given condition, as determined by UV absorbance being less than 0.1 AU at 340 nm and the sample being clear when manually inspected.)”. For the same compound, the IC50 in series [2] was below 100 nM.

`CC[C@H](C)[C@@H]1NC(=O)[C@@H](NC(=O)[C@@H](NC(=O)[C@H](CCC(=O)O)NC(=O)CNC(=O)[C@H](CCC(=O)O)NC(C)=O)[C@@H](C)CC)CSSC[C@@H](C(=O)N[C@H](C(N)=O)[C@@H](C)O)NC(=O)[C@H](CCCNC(=N)N)NC(=O)[C@H](Cc2c[nH]cn2)NC(=O)[C@H](CCC(=O)O)NC(=O)CNC(=O)[C@H](Cc2c[nH]c3ccccc23)NC(=O)[C@H](CC(=O)O)NC(=O)[C@H](CCC(N)=O)NC(=O)[C@H](Cc2c[nH]c3ccccc23)NC1=O` [Compound 30] (Ac-EGEICIWQDWGEHRCT-NH2; disulfide 5-15): in series [1], the “Solubility, Condition 1 Acetate pH 4” value is given as “− (denotes lack of solubility at the given condition, as UV absorbance at 340 nm exceeds 0.1 AU and/or it is visibly turbid or contains particles.)”; the “Solubility, Condition 2 Acetate pH 5” value is reported as “− (denotes lack of solubility at the given condition, as UV absorbance at 340 nm exceeds 0.1 AU and/or it is visibly turbid or contains particles.)”; the “Solubility, Condition 3 Phosphate pH 6” value is on record as “− (denotes lack of solubility at the given condition, as UV absorbance at 340 nm exceeds 0.1 AU and/or it is visibly turbid or contains particles.)”; the “Solubility, Condition 4 Phosphate pH 7” value was “+ (denotes solubility at the given condition, as determined by UV absorbance being less than 0.1 AU at 340 nm and the sample being clear when manually inspected.)”. For the same compound, the “Solubility, Condition 5 Phosphate pH 7.5” value in series [1] is “+ (denotes solubility at the given condition, as determined by UV absorbance being less than 0.1 AU at 340 nm and the sample being clear when manually inspected.)”. Further, the IC50 in series [2] was below 100 nM.

`CC[C@H](C)[C@@H]1NC(=O)[C@@H](NC(=O)[C@H](Cc2ccccc2)NC(=O)[C@H](CCC(=O)O)NC(=O)[C@H](CO)NC(C)=O)CSSC[C@@H](C(=O)N[C@H](C(=O)NCC(=O)N[C@@H](C)C(=O)N[C@@H](CCC(=O)O)C(=O)N[C@@H](CO)C(N)=O)[C@@H](C)O)NC(=O)[C@H](CCCNC(=N)N)NC(=O)[C@H](Cc2c[nH]cn2)NC(=O)[C@H](CCC(=O)O)NC(=O)CNC(=O)[C@H](Cc2c[nH]c3ccccc23)NC(=O)[C@H](CC(=O)O)NC(=O)[C@H](CCC(N)=O)NC(=O)[C@H](Cc2cn(C)c3ccccc23)NC1=O` [Compound 67] (Ac-SEFCI[Trp(1-Me)]QDWGEHRCTGAES-NH2; disulfide 4-14): in series [1], the “Solubility, Condition 1 Acetate pH 4” value is on record as “− (denotes lack of solubility at the given condition, as UV absorbance at 340 nm exceeds 0.1 AU and/or it is visibly turbid or contains particles.)”; the “Solubility, Condition 2 Acetate pH 5” value is “− (denotes lack of solubility at the given condition, as UV absorbance at 340 nm exceeds 0.1 AU and/or it is visibly turbid or contains particles.)”; the “Solubility, Condition 3 Phosphate pH 6” value was “+ (denotes solubility at the given condition, as determined by UV absorbance being less than 0.1 AU at 340 nm and the sample being clear when manually inspected.)”; the “Solubility, Condition 4 Phosphate pH 7” value was “+ (denotes solubility at the given condition, as determined by UV absorbance being less than 0.1 AU at 340 nm and the sample being clear when manually inspected.)”. Moreover, in series [1], the “Solubility, Condition 5 Phosphate pH 7.5” value was “+ (denotes solubility at the given condition, as determined by UV absorbance being less than 0.1 AU at 340 nm and the sample being clear when manually inspected.)”. Further, the IC50 in series [2] was below 100 nM.

For the compound `CC[C@H](C)[C@@H]1NC(=O)[C@@H](NC(=O)[C@H](Cc2ccccc2)NC(=O)[C@H](CCC(=O)O)NC(=O)[C@H](CO)NC(C)=O)CSSC[C@@H](C(=O)N(C)CC(=O)N[C@@H](CCC(=O)O)C(=O)N[C@@H](C)C(N)=O)NC(=O)[C@H](CCCNC(=N)N)NC(=O)[C@H](Cc2c[nH]cn2)NC(=O)[C@H](CCC(=O)O)NC(=O)CN(C)C(=O)[C@H](Cc2c[nH]c3ccccc23)NC(=O)[C@H](CC(=O)O)NC(=O)[C@H](CCC(N)=O)NC(=O)[C@H](Cc2cn(C)c3ccccc23)NC1=O` [Compound 76, Ac-SEFC(1)I[1-Me-Trp]QDW[SarlEHRC(1)[Sar]EA-NH2] (Ac-SEFCI[Trp(1-Me)]QDW[Sar]EHRC[Sar]EA-NH2; disulfide 4-14), in series [1], the “Solubility, Condition 1 Acetate pH 4” value is “− (denotes lack of solubility at the given condition, as UV absorbance at 340 nm exceeds 0.1 AU and/or it is visibly turbid or contains particles.)”; the “Solubility, Condition 2 Acetate pH 5” value was “− (denotes lack of solubility at the given condition, as UV absorbance at 340 nm exceeds 0.1 AU and/or it is visibly turbid or contains particles.)”; the “Solubility, Condition 3 Phosphate pH 6” value was “+ (denotes solubility at the given condition, as determined by UV absorbance being less than 0.1 AU at 340 nm and the sample being clear when manually inspected.)”; the “Solubility, Condition 4 Phosphate pH 7” value was “+ (denotes solubility at the given condition, as determined by UV absorbance being less than 0.1 AU at 340 nm and the sample being clear when manually inspected.)”. In addition, the “Solubility, Condition 5 Phosphate pH 7.5” value in series [1] is “+ (denotes solubility at the given condition, as determined by UV absorbance being less than 0.1 AU at 340 nm and the sample being clear when manually inspected.)”. Besides, the half-maximal inhibitory concentration (IC50) in series [2] is below 100 nM.

`CC[C@H](C)[C@H](NC(=O)[C@H](C)NC(=O)[C@H](CO)NC(=O)CNC(=O)[C@H](CCC(=O)O)NC(C)=O)C(=O)N[C@H]1CSSC[C@@H](C(=O)N(C)CC(=O)N[C@@H](CCC(=O)O)C(N)=O)NC(=O)[C@H](CCCNC(=N)N)NC(=O)[C@H](Cc2c[nH]cn2)NC(=O)[C@H](CCC(=O)O)NC(=O)CNC(=O)[C@H](Cc2c[nH]c3ccccc23)NC(=O)[C@H](CC(=O)O)NC(=O)[C@H](CCC(N)=O)NC(=O)[C@H](Cc2cn(C)c3ccccc23)NC(=O)[C@H]([C@@H](C)CC)NC1=O` [Compound 49] (Ac-EGSAICI[Trp(1-Me)]QDWGEHRC[Sar]E-NH2; disulfide 6-16): in series [1], the “Solubility, Condition 1 Acetate pH 4” value is recorded as “− (denotes lack of solubility at the given condition, as UV absorbance at 340 nm exceeds 0.1 AU and/or it is visibly turbid or contains particles.)”; the “Solubility, Condition 2 Acetate pH 5” value is given as “− (denotes lack of solubility at the given condition, as UV absorbance at 340 nm exceeds 0.1 AU and/or it is visibly turbid or contains particles.)”; the “Solubility, Condition 3 Phosphate pH 6” value is “+ (denotes solubility at the given condition, as determined by UV absorbance being less than 0.1 AU at 340 nm and the sample being clear when manually inspected.)”; the “Solubility, Condition 4 Phosphate pH 7” value was “+ (denotes solubility at the given condition, as determined by UV absorbance being less than 0.1 AU at 340 nm and the sample being clear when manually inspected.)”. Moreover, the “Solubility, Condition 5 Phosphate pH 7.5” value in series [1] was “+ (denotes solubility at the given condition, as determined by UV absorbance being less than 0.1 AU at 340 nm and the sample being clear when manually inspected.)”. Also, the IC50 in series [2] is below 100 nM.

Consider `CC[C@H](C)[C@@H]1NC(=O)[C@@H](NC(=O)[C@H](Cc2ccccc2)NC(=O)[C@H](C)NC(=O)[C@H](CO)NC(=O)CNC(=O)[C@H](CCC(=O)O)NC(C)=O)CSSC[C@@H](C(=O)N[C@H](C(=O)N[C@@H](CCC(=O)O)C(N)=O)[C@@H](C)O)NC(=O)[C@H](CCCNC(=N)N)NC(=O)[C@H](Cc2c[nH]cn2)NC(=O)[C@H](CCC(=O)O)NC(=O)CNC(=O)[C@H](Cc2c[nH]c3ccccc23)NC(=O)[C@H](CC(=O)O)NC(=O)[C@H](CCC(N)=O)NC(=O)[C@H](Cc2cn(C)c3ccccc23)NC1=O` [Compound 57] (Ac-EGSAFCI[Trp(1-Me)]QDWGEHRCTE-NH2; disulfide 6-16), for which, in series [1], the “Solubility, Condition 1 Acetate pH 4” value is listed as “− (denotes lack of solubility at the given condition, as UV absorbance at 340 nm exceeds 0.1 AU and/or it is visibly turbid or contains particles.)”; the “Solubility, Condition 2 Acetate pH 5” value was “− (denotes lack of solubility at the given condition, as UV absorbance at 340 nm exceeds 0.1 AU and/or it is visibly turbid or contains particles.)”; the “Solubility, Condition 3 Phosphate pH 6” value was “+ (denotes solubility at the given condition, as determined by UV absorbance being less than 0.1 AU at 340 nm and the sample being clear when manually inspected.)”; the “Solubility, Condition 4 Phosphate pH 7” value was “+ (denotes solubility at the given condition, as determined by UV absorbance being less than 0.1 AU at 340 nm and the sample being clear when manually inspected.)”. For the same compound, the “Solubility, Condition 5 Phosphate pH 7.5” value in series [1] is “+ (denotes solubility at the given condition, as determined by UV absorbance being less than 0.1 AU at 340 nm and the sample being clear when manually inspected.)”. Besides, the half-maximal inhibitory concentration (IC50) in series [2] is below 100 nM.
